Measured values published in ChEMBL document CHEMBL1909046, “DrugMatrix in vitro pharmacology data”.

Assays:
[1] = target: 5-hydroxytryptamine receptor 4 (Cavia porcellus, UniProt O70528); format: cell membranes, Dunkin-Hartley, Striatum, Membrane; also: in other assays of this panel Not Active means under 50% inhibition at 10 µM
Melanocortin receptor 3 = Melanocortin receptor 3 (Homo sapiens, UniProt P41968); format: cell membranes, Membrane; details: hek293; also: in other assays of this panel Not Active means under 50% inhibition at 10 µM
[2] = target: Mitogen-activated protein kinase 3 (Homo sapiens, UniProt P27361); assay: DRUGMATRIX: Protein Serine/Threonine Kinase, ERK1 enzyme inhibition (substrate: Myelin Basic Protein); set-up: species or system Escherichia coli; details: Not Active = under 50% inhibition at 10 µM
[3] = target: Sigma non-opioid intracellular receptor 1 (Homo sapiens, UniProt Q99720); assay: DRUGMATRIX: Sigma1 radioligand binding (ligand: [3H] Haloperidol); format: cell membranes, Jurkat, Membrane; details: jurkat; Not Active = under 50% inhibition at 10 µM
Melanocortin receptor 4 = Melanocortin receptor 4 (Homo sapiens, UniProt P32245); format: cell membranes, Membrane; details: hek293; also: in other assays of this panel Not Active means under 50% inhibition at 10 µM
[4] = target: Aldo-keto reductase family 1 member B1 (Rattus norvegicus, UniProt P07943); assay: biochemical; format: tissue-based, Lens of camera-type eye;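 also: inhibition of aldose reductase enzyme activity, measured with DL-glyceraldehyde as the substrate; in other assays of this panel Not Active means under 50% inhibition at 10 µM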

Sequence of Mitogen-activated protein kinase 3 (P27361 whole entry): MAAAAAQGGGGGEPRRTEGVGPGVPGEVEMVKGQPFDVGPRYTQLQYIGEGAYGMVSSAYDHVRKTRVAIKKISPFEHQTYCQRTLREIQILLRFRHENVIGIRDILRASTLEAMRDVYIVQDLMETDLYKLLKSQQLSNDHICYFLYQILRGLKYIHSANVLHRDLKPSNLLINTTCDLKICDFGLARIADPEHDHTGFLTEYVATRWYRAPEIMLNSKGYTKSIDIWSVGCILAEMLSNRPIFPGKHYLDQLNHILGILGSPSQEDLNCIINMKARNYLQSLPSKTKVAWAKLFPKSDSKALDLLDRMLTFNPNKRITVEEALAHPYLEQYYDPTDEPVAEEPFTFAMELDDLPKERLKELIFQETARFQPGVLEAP
Sequence of 5-hydroxytryptamine receptor 4 (O70528 whole entry): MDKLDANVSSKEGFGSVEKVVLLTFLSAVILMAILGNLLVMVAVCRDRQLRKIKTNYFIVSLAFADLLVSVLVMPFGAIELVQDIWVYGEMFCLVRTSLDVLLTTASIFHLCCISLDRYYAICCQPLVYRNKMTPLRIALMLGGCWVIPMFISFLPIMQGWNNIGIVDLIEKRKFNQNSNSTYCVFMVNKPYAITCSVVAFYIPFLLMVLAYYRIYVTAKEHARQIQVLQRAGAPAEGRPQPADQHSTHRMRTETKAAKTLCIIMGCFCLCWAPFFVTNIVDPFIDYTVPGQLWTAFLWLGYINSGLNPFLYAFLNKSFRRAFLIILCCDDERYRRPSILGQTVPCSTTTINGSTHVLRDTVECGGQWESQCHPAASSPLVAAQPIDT
Sequence of Melanocortin receptor 3 (P41968 whole entry): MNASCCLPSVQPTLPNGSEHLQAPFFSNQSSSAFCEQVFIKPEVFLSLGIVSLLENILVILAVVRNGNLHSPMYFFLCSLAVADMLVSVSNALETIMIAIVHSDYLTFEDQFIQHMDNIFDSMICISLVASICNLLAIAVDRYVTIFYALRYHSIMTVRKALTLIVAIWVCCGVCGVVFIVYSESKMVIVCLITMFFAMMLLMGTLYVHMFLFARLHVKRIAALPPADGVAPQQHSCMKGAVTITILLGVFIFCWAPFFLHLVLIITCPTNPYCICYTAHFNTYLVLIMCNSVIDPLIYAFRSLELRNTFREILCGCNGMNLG
Sequence of Melanocortin receptor 4 (P32245 whole entry): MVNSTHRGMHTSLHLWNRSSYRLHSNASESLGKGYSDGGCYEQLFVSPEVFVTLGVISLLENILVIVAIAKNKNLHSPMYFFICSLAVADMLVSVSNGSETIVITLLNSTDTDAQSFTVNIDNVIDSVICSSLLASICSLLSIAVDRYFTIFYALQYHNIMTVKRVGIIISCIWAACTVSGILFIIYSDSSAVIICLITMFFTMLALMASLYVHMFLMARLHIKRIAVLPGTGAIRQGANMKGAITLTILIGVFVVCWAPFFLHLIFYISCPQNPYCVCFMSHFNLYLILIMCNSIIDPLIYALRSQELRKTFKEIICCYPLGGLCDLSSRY
Sequence of Sigma non-opioid intracellular receptor 1 (Q99720 whole entry): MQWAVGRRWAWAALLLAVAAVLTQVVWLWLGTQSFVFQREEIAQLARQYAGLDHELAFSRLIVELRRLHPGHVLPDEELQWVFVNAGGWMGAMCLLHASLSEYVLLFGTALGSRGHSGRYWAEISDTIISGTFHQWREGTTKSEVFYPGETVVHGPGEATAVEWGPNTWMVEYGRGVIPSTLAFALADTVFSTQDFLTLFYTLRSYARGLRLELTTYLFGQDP

INSULIN HUMAN
Not Active: IC50 [1] | Ki [1] | IC50 (Melanocortin receptor 3) | Ki (Melanocortin receptor 3) | IC50 [2] | Ki [2] | IC50 [3] | Ki [3] | IC50 (Melanocortin receptor 4) | Ki (Melanocortin receptor 4) | IC50 [4] | Ki [4]

POLYVINYL ALCOHOL
Not Active: IC50 [1] | Ki [1] | IC50 (Melanocortin receptor 3) | Ki (Melanocortin receptor 3) | IC50 [2] | Ki [2] | IC50 [3] | Ki [3] | IC50 (Melanocortin receptor 4) | Ki (Melanocortin receptor 4) | IC50 [4] | Ki [4]
